The values that follow come from patent publication US8673911B2, “Inhibitors of histone deacetylase” (MethylGene Inc., priority 2007, dated 2014).

By IC50 is commonly meant the concentration that inhibits the measured activity by half. Lower therefore signals inhibition by little substance.

For this assay, the target named is one or more of HDAC4, HDAC5, HDAC6, HDAC7, HDAC8, HDAC9 and HDAC11. Put plainly: Inhibition of histone deacetylase enzymatic activity (fluorogenic Boc-Lys(Ac)-AMC / Boc-Lys(trifluoroacetyl)-AMC substrate). It is filed as biochemical. The following applies: against one or more of HDAC4, HDAC5, HDAC6, HDAC7, HDAC8, HDAC9 and HDAC11. The method, then: Inhibition of HDAC-1,2,3,6 and 8
The following protocol is used to assay the compounds of the invention. In the assay, the buffer used is 25 mM HEPES, pH 8.0, 137 mM NaCl, 2.7 mM KCl, 1 mM MgCl2 and the substrate is Boc-Lys(Ac)-AMC in a 50 mM stock solution in DMSO. The enzyme stock solution is 4.08 μg/mL in buffer.
The compounds are pre-incubated (2 μl, in DMSO diluted to […] in buffer for transfer to assay plate) with enzyme (20 μL of 4.08 μg/mL) for 10 minutes at room temperature (35 μL pre-incubation volume). The mixture is pre-incubated for 5 minutes at room temperature. The reaction is started by bringing the temperature to 37° C. and adding 15 μL substrate. Total reaction volume is 50 μL. The reaction is stopped after 20 minutes by addition of 50 μL developer, prepared as directed by Biomol (FLUOR DE LYS™ developer, Cat. # KI-105). A plate is incubated in the dark for 10 minutes at room temperature before reading (λEx=360 nm, λEm=470 nm, Cutoff filter at 435 nm).
Inhibition of Class II HDAC and HDAC-11
A 30 mM stock of Boc-Lys(trifluoroacetyl)-AMC substrate is prepared in DMSO. 2 μL test compound in DMSO is diluted to 50 μL in buffer (25 mM HEPES, pH 8.0, 137 mM NaCl, 2.7 mM KCl, 1 mM MgCl2, 0.1% BSA) and pre-incubated with HDAC enzyme (30 μL of a final enzyme concentration of 0.1-0.2 nM) for 10 minutes at room temperature. Reaction is started by adding 18 μL Boc-Lys(trifluoroacetyl)-AMC substrate and incubating at 37° C. for 20-30 minutes. The reaction is stopped by adding 50 μL trypsin (1 mg/mL) and a known HDAC inhibitor. The plate is then incubated in the dark for 20 minutes at room temperature and read with Ex=360 nm, Em=470 nm, cutoff filter at 435 nm.
Turning to `O=C(NO)c1ccccc1-c1cccc(-c2ccccc2)c1` [Compound 13], the 50% inhibitory concentration (IC50) lay in the range of 0.75 to 5 µM.

Consider `COc1cccc(-c2ccccc2C(=O)NO)c1` [Compound 19, N-hydroxy-3′-melhoxybipheny 1-2-carboxamide], for which the half-maximal inhibitory concentration (IC50) lay in the range of 0.75 to 5 µM.

With `O=C(NO)c1ccccc1-n1cccc1` [Compound 21, N-hydroxy-2-(lH-pyrrol-1-yl)benzamide], the IC50 was 0.75 to 5 µM.

`Cc1cscc1-c1ccccc1C(=O)NO` [Compound 24, N-hydroxy-2-(4-mcthylthiophen-3-yl)benzamide] returned an IC50 of 0.75 to 5 µM.

For the compound `O=C(NO)c1ccccc1-c1cccc([N+](=O)[O-])c1` [Compound 26, N-hydroxy-3′-nitrobiphenyl-2-carboxamide], the IC50 lay in the range of 0.75 to 5 µM.

As for `O=C(NO)c1ccccc1-c1cccc(F)c1` [Compound 27, 3′-fluoro-N-hydroxybiphenyl-2-carboxamide], the IC50 was 0.75 to 5 µM.

As to `Cc1cscc1-c1cccc(-c2ccccc2C(=O)NO)c1` [Compound 29, N-hydroxy-3′-(4-methyl-thiophen-3-yl) biphcnyl-2-carboxamidc], the IC50 fell in the range of 0.5 to 0.75 µM.

`O=C(NO)c1cn(-c2ccccc2)nc1-c1ccccc1` [Compound 32, N-hydroxy-1,3-diphenyl-1H-pyrazole-4-carboxamidc] showed a 50% inhibitory concentration (IC50) of 0.5 to 0.75 µM.

As to `COc1cccc(-c2cc(C)ccc2C(=O)NO)c1` [Compound 33, N-hydroxy-3′-methoxy-5-mcthylbiphenyl-2-carboxamide], the 50% inhibitory concentration (IC50) was 0.5 to 0.75 µM.

`COc1cccc(-c2ccc(C(=O)NO)c(-c3cccc(OC)c3)c2)c1` [Compound 50] registered an IC50 of 0.75 to 5 µM.

With `Cc1cscc1-c1ccc(C(=O)NO)c(-c2cscc2C)c1` [Compound 51, N-hydroxy-2,4-bis(4-methylthiophen-3-yl)benzamide], the IC50 was under 0.25 µM.

Compound `O=C(NO)c1ccc(-c2ccccc2)cc1-c1ccccc1` [Compound 52] came in with an IC50 of under 0.25 µM.

Regarding `O=C(NO)c1sc(-c2ccccc2)nc1-c1ccccc1` [Compound 74, N-hydroxy-2,4-diphenylthiazole-5-carboxamide], the IC50 is under 0.25 µM.

Consider `COc1ccc(-c2nc(-c3ccc(F)cc3)c(C(=O)NO)s2)cc1` [Compound 80, 4-(4-fluorophenyl)-N-hydroxy-2-(4-methoxyphenyl)thiazole-5-carboxamide], for which the 50% inhibitory concentration (IC50) was under 0.25 µM.

In turn, `O=C(NO)c1sc(-c2ccccc2)cc1-c1ccccc1` [Compound 86, N-hydroxy-3,5-diphenylthiophene-2-carboxamide] came in with a half-maximal inhibitory concentration (IC50) of under 0.25 µM.

On to `O=C(NO)c1sc(-c2ccccc2)cc1-c1ccccc1` [Compound 89, N-hydroxy-3,5-diphenylthiophene-2-carboxamide], for which the IC50 fell in the range of 0.25 to 0.5 µM.

Turning to `O=C(NO)c1sc(-c2ccccc2)cc1-c1ccccc1` [Compound 92, N-hydroxy-3,5-diphenylthiophene-2-carboxamide], the concentration for half-maximal inhibition (IC50) is under 0.25 µM.

As for `COc1cccc(-c2cc(F)ccc2C(=O)NO)c1` [Compound 98, 5-fluoro-N-hydroxy-3′-methoxybiphenyl-2-carboxamidc], the half-inhibitory concentration (IC50) was 0.5 to 0.75 µM.

Compound `O=C(NO)c1ccc(C2=Nc3ccccc3Oc3ccccc32)cc1-c1ccccc1` [Compound 104, (Z)-5-(dibenzo[b,f][1,4]oxazepin-11-yl)-N-hydroxybiphenyl-2-carboxamide] registered an IC50 of under 0.25 µM.

`O=C(NO)c1cn(Cc2ccccc2)nc1-c1ccccc1` [Compound 106, 1-benzyl-N-hydroxy-3-phenyl 1H-pyrazole-4-carboxamide] returned an IC50 of 0.25 to 0.5 µM.

Consider `O=C(NO)c1cn(-c2ccccc2)nc1-c1ccc(F)cc1` [Compound 108, 3-(4-fluorophenyl)-N-hydroxy-1-phenyl-1H-pyrazole-4-carboxamide], for which the IC50 is 0.75 to 5 µM.

Take `O=C(NO)c1sc(-c2ccc(N3CCOCC3)cc2)nc1-c1ccccc1` [Compound 109, N-hydroxy-2-(4-morpholino-phenyl)-4-phenylthiazole-5-carboxamide]: the IC50 is under 0.25 µM.

Take `O=C(NO)c1sc(-c2csc3ccccc23)nc1-c1ccccc1` [Compound 110, 2-(benzo[b]thiophen-3-yl)-N-hydroxy-4-phenylthiazole-5-carboxamide]: the IC50 is under 0.25 µM.

Turning to `CN(C)c1ccc(-c2ccc(C(=O)NO)c(-c3ccccc3)c2)cc1` [Compound 116, 5-(4-dimethylamino-phenyl)-N-hydroxybiphenyl-2-carboxamide], the IC50 is under 0.25 µM.

With `O=C(NO)c1sc(N2CCCCC2)nc1-c1ccccc1` [Compound 117, N-hydroxy-4-phenyl-2-(piperidin-1-yl)thiazole-5-carboxamide], the IC50 is under 0.25 µM.

The compound `O=C(NO)c1sc(-c2cccnc2)nc1-c1ccccc1` [Compound 120, N-hydroxy-4-phenyl-2-(pyridin-3-yl)thiazole-5-carboxamide] gave a half-inhibitory concentration (IC50) of under 0.25 µM.

In the case of `O=C(NO)c1sc(N2CCCc3ccccc32)nc1-c1ccccc1` [Compound 121, 2-(3,4-dihydroquinolin-1(2H)-yl)-N-hydroxy-4-phenylthiazole-5-carboxamide], the IC50 is under 0.25 µM.

As to `O=C(NO)c1sc(-c2ccncc2)nc1-c1ccccc1` [Compound 122, N-hydroxy-4-phenyl-2-(pyridin-4-yl)thiazole-5-carboxamide], the IC50 is under 0.25 µM.

In the case of `O=C(NO)c1sc(COc2ccccc2)cc1-c1ccccc1` [Compound 125, N-hydroxy-5-(phenoxymethyl)-3-phenylthiophene-2-carboxamide], the concentration for half-maximal inhibition (IC50) was under 0.25 µM.

The compound `O=C(NO)c1sc2ccc(NS(=O)(=O)c3ccccc3)cc2c1-c1ccccc1` [Compound 126, N-hydroxy-3-phenyl-5-(phenylsulfonamido) benzo[b] thiophene-2-carboxamide] returned a half-maximal inhibitory concentration (IC50) of 0.5 to 0.75 µM.

As to `O=C(NO)c1sc(Cc2ccccc2)cc1-c1ccccc1` [Compound 130, 5-benzyl-N-hydroxy-3-phenylthiophene-2-carboxamide], the 50% inhibitory concentration (IC50) was under 0.25 µM.

As for `O=C(Nc1ccc2sc(C(=O)NO)c(-c3ccccc3)c2c1)OCc1ccccc1` [Compound 131, benzyl 2-(hydroxycarbamoyl)-3-phenylbenzo[b] thiophen-5-ylcarbamate], the IC50 was in the range of 0.5 to 0.75 µM.

`O=C(NO)c1sc(C2CCN(Cc3ccccc3)CC2)nc1-c1ccccc1` [Compound 132, 2-(1-benzylpiperidin-4-yl)-N-hydroxy-4-phenylthiazole-5-carboxamide] registered an IC50 of under 0.25 µM.

In the case of `O=C(NO)c1sc(C2CCN(C(=O)c3ccccc3)CC2)nc1-c1ccccc1` [Compound 133, 2-(1-benzoylpiperidin-4-yl)-N-hydroxy-4-phenylthiazole-5-carboxamide], the IC50 was under 0.25 µM.

As to `O=C(NO)c1sc(-c2ccc3c(c2)CCO3)nc1-c1ccccc1` [Compound 139, 2-(2,3-dihydrobenzofuran-5-yl)-N-hydroxy-4-phenylthiazole-5-carboxamide], the IC50 was in the range of 0.75 to 5 µM.

Take `O=C(NO)c1sc(-c2cccs2)nc1-c1ccccc1` [Compound 140, N-hydroxy-4-phenyl-2-(thiophen-2-yl)thiazole-5-carboxamide]: the IC50 lay within 0.5 to 0.75 µM.

As to `O=C(NO)c1cnc(-c2ccccc2)nc1-c1ccccc1` [Compound 141, N-hydroxy-2,4-diphenylpyrimidine-5-carboxamide], the IC50 lay within 0.25 to 0.5 µM.

Consider `O=C(NO)c1cnc(-c2ccccc2)nc1-c1cccc(F)c1` [Compound 143, 4-(3-fluorophenyl)-N-hydroxy-2-phenylpyrimidine-5-carboxamide], for which the IC50 lay in the range of 0.25 to 0.5 µM.

`O=C(NO)c1sc(C2CCN(Cc3ccncc3)CC2)nc1-c1ccccc1` [Compound 144, N-hydroxy-4-phenyl-2-(1-(pyridin-4-ylmethyl)piperidin-4-yl)thiazole-5-carboxamide] displayed a concentration for half-maximal inhibition (IC50) of under 0.25 µM.

For the compound `O=C(NO)c1sc(C2CCN(C(=O)N3CCCC3)CC2)nc1-c1ccccc1` [Compound 145, N-hydroxy-4-phenyl-2-(1-(pyrrolidine-1-carbonyl)piperidin-4-yl)thiazole-5-carboxamide], the 50% inhibitory concentration (IC50) was under 0.25 µM.

On to `O=C(NO)c1sc(-c2ccc(OCCN3CCOCC3)cc2)nc1-c1ccccc1` [Compound 146, N-hydroxy-2-(4-(2-morpholinoethoxy)phenyl)-4-phenylthiazole-5-carboxamide], for which the IC50 was under 0.25 µM.

Take `CCOC(=O)N1CCC(c2nc(-c3ccccc3)c(C(=O)NO)s2)CC1` [Compound 147, ethyl 4-(5-(hydroxycarbamoyl)-4-phenylthiazol-2-yl)piperidine-1-carboxylate]: the 50% inhibitory concentration (IC50) is under 0.25 µM.

In turn, `CS(=O)(=O)N1CCC(c2nc(-c3ccccc3)c(C(=O)NO)s2)CC1` [Compound 148, N-hydroxy-2-(1-(methylsulfonyl)piperidin-4-yl)-4-phenylthiazole-5-carboxamide] displayed an IC50 of under 0.25 µM.
